Results as given in DBAASP.
Values after ≈ are worked out from the molar mass of the structure shown. Values joined by “and” are separate entries in the source; they are usually repeats but may differ in a detail not shown here. Equal values may be shown once. One block for each compound: values may come before it.

How the values were obtained:
Test in all cases: ≥ marks a high value that may be exact or a test limit, other limits are often not marked, values filed in µg/mL are converted to µM
Escherichia coli 170 = test system: Escherichia coli 170
[1] = test system: Streptococcus pneumoniae ATCC 49619
Escherichia coli 4530 = test system: Escherichia coli 4530
[2] = test system: Klebsiella pneumoniae 913
[3] = test system: Pseudomonas aeruginosa 4677
[4] = test system: Klebsiella pneumoniae 1625
[5] = test system: Escherichia coli ATCC 25922
Salmonella typhimurium = test system: Salmonella typhimurium
Acinetobacter baumannii = test system: Acinetobacter baumannii
[6] = test system: Enterobacter cloacae 2524
[7] = test system: Enterobacter cloacae 6780
[8] = test system: Staphylococcus aureus S908
[9] = test system: Candida albicans ATCC 90028
[10] = test system: Stenotrophomonas maltophilia B32/4
[11] = test system: Staphylococcus aureus ATCC 25923
[12] = test system: Enterococcus faecalis ATCC 29212
[13] = test system: Staphylococcus epidermidis RP62A/1
[14] = test system: Staphylococcus aureus V4180
[15] = test system: Acinetobacter baumannii NM35
[16] = test system: Staphylococcus aureus 127/08
[17] = test system: Staphylococcus epidermidis T37/8
[18] = test system: Staphylococcus aureus 145/08
[19] = test system: Staphylococcus epidermidis T6/19
[20] = test system: Escherichia coli ATCC 25726
[21] = test system: Stenotrophomonas maltophilia B32/1
[22] = test system: Acinetobacter baumannii NM124
[23] = test system: Klebsiella pneumoniae ATCC 700603
[24] = test system: Acinetobacter baumannii NM75
[25] = test system: Staphylococcus aureus T4/6
[26] = test system: Staphylococcus epidermidis RP62A
[27] = test system: Stenotrophomonas maltophilia B6/2
[28] = test system: Acinetobacter baumannii NM8
[29] = test system: Stenotrophomonas maltophilia U8908
[30] = test system: Stenotrophomonas maltophilia B5/5
[31] = test system: Pseudomonas aeruginosa ATCC 27853
[32] = test system: Acinetobacter baumannii NM109
[33] = test system: Staphylococcus aureus 274/08
[34] = test system: Klebsiella pneumoniae ATCC 13883
[35] = test system: Listeria monocytogenes ATCC 19115
[36] = test system: Salmonella enterica subsp. enterica serovar Enteritidis ATCC 13076
[37] = test system: Staphylococcus aureus ATCC 43300
[38] = test system: Staphylococcus aureus ATCC BAA-39
[39] = test system: Candida albicans ATCC 37092
[40] = test system: Staphylococcus aureus ATCC 29213
Staphylococcus aureus = test system: Staphylococcus aureus
Escherichia coli 363 = test system: Escherichia coli 363

MIC (Escherichia coli 170): 1.56 µM (≈ 3.07 µg/mL)
MIC [1]: ≥ 50 µM
MIC (Escherichia coli 4530): ≥ 50 µM
MIC [2]: 6.25 µM (≈ 12.3 µg/mL)
MIC [3]: ≥ 50 µM
MIC [4]: 3.12 µM (≈ 6.14 µg/mL)
MIC [5]: 1.56 µM (≈ 3.07 µg/mL)
MIC (Salmonella typhimurium): 4.38 µM (≈ 8.63 µg/mL)
MIC (Acinetobacter baumannii): 2.21 µM (≈ 4.35 µg/mL)
MIC [6]: ≥ 50 µM
MIC [7]: 3.12 µM (≈ 6.14 µg/mL)
SMILES: CC[C@H](C)[C@H](NC(=O)CN)C(=O)N[C@@H](CC(C)C)C(=O)N[C@@H](CC(N)=O)C(=O)N[C@H](C(=O)N[C@H](C(=O)N[C@@H](CCCCN)C(=O)N[C@@H](CO)C(=O)N[C@H](C(=O)N[C@@H](C)C(=O)N[C@@H](CO)C(=O)N[C@@H](CCCCN)C(=O)N[C@@H](CC(C)C)C(=O)N[C@@H](CCCCN)C(=O)N[C@@H](CCCN=C(N)N)C(=O)N[C@@H](CCCCN)C(=O)N[C@@H](C)C(=O)N[C@@H](CCCCN)C(=O)O)[C@@H](C)CC)[C@@H](C)CC)[C@@H](C)O [GILNTIKSIASKLKRKAK]

MIC [34]: 2 µM (≈ 4.72 µg/mL)
MIC [11]: 2 µM (≈ 4.72 µg/mL)
MIC [35]: 2 µM (≈ 4.72 µg/mL)
MIC [5]: 4 µM and 5.66 µM
MIC [36]: 2 µM (≈ 4.72 µg/mL)
MIC [37]: 2 µM (≈ 4.72 µg/mL)
MIC [38]: 2 µM and 2.83 µM
SMILES: CC[C@H](C)[C@H](NC(=O)[C@H](CCCCN)NC(=O)[C@H](CCCN=C(N)N)NC(=O)[C@H](CC(C)C)NC(=O)[C@H](Cc1ccccc1)NC(=O)[C@H](CCCN=C(N)N)NC(=O)CNC(=O)[C@H](Cc1ccccc1)NC(=O)[C@H](CCCN=C(N)N)NC(=O)CNC(=O)[C@H](CCCN=C(N)N)NC(=O)[C@H](CCC(N)=O)NC(=O)[C@@H](NC(=O)[C@@H](N)CC(C)C)C(C)C)C(=O)N[C@@H](CCCN=C(N)N)C(=O)N[C@@H](CCCN=C(N)N)C(=O)N[C@@H](Cc1ccccc1)C(=O)N[C@@H](CCCN=C(N)N)C(=O)O [LVQRGRFGRFLRKIRRFR]

MIC (Staphylococcus aureus): 9 µM (≈ 20.3 µg/mL)
MIC (Escherichia coli 363): ≥ 50 µM
SMILES: CC(C)C[C@H](NC(=O)[C@H](CCCN=C(N)N)NC(=O)[C@H](CCCN=C(N)N)NC(=O)[C@H](CC(C)C)NC(=O)[C@H](CC(C)C)NC(=O)[C@H](CCCN=C(N)N)NC(=O)[C@H](CCCN=C(N)N)NC(=O)[C@H](CC(C)C)NC(=O)[C@H](CC(C)C)NC(=O)[C@H](CCCN=C(N)N)NC(=O)[C@H](CCCN=C(N)N)NC(=O)[C@H](CC(C)C)NC(=O)[C@H](CCCN=C(N)N)NC(=O)[C@@H](N)CCCN=C(N)N)C(=O)N[C@@H](CCCN=C(N)N)C(=O)N[C@@H](CCCN=C(N)N)C(N)=O [RRLRRLLRRLLRRLRR]

Second part, the compound before the results:

SMILES: CC[C@H](C)[C@H](NC(=O)[C@H](C)NC(=O)[C@H](CCCCN)NC(=O)CNC(=O)[C@@H](NC(=O)[C@H](Cc1cnc[nH]1)NC(=O)CNC(=O)[C@H](CC(C)C)NC(=O)[C@H](CC(C)C)NC(=O)[C@@H](NC(=O)CNC(=O)[C@@H](NC(=O)[C@H](CC(C)C)NC(=O)CN)C(C)C)[C@@H](C)O)[C@@H](C)CC)C(=O)N[C@@H](CC(C)C)C(=O)NCC(=O)O [GLVGTLLGHIGKAILG]
MIC [8]: ≥ 125 µM
MIC [9]: ≥ 250 µM
MIC [10]: ≥ 250 µM
MIC [11]: 125 µM (≈ 190 µg/mL)
MIC [12]: 250 µM (≈ 380 µg/mL)
MIC [13]: ≥ 125 µM
MIC [14]: ≥ 250 µM
MIC [15]: ≥ 250 µM
MIC [16]: ≥ 125 µM
MIC [17]: ≥ 250 µM
MIC [18]: ≥ 250 µM
MIC [19]: ≥ 125 µM
MIC [20]: ≥ 250 µM
MIC [21]: ≥ 250 µM
MIC [22]: ≥ 250 µM
MIC [23]: > 250 µM
MIC [24]: ≥ 250 µM
MIC [25]: ≥ 250 µM
MIC [26]: ≥ 125 µM
MIC [27]: ≥ 250 µM
MIC [28]: ≥ 250 µM
MIC [29]: ≥ 250 µM
MIC [30]: ≥ 250 µM
MIC [31]: > 250 µM
MIC [32]: ≥ 250 µM
MIC [33]: ≥ 250 µM

SMILES: CC[C@H](C)[C@H](NC(=O)[C@@H]1CCCN1C(=O)[C@H](CCCN=C(N)N)NC(=O)[C@@H]1CCCN1C(=O)CNC(=O)[C@@H]1CCCN1C(=O)[C@H](CCCN=C(N)N)NC(=O)[C@@H]1CCCN1C(=O)[C@H](Cc1ccccc1)NC(=O)[C@@H]1CCCN1C(=O)[C@H](CC(C)C)NC(=O)[C@@H]1CCCN1)C(=O)N1CCC[C@H]1C(=O)N[C@@H](CCCN=C(N)N)C(=O)N1CCC[C@H]1C(=O)O [PLPFPRPGPRPIPRP]
MIC [39]: 30.5 µM (≈ 51.7 µg/mL)
MIC [40]: > 500 µM
MIC [5]: > 500 µM
